Here are results for 6 compounds from article PMC10817917, “Alkyl deoxyglycoside-polymyxin combinations against critical priority carbapenem-resistant gram-negative bacteria” (Scientific Reports, 2024).

In brackets after ≈: the same amount, converted by molar mass.

One experiment has as its system E. coli ATCC 25922. The experiment in a line: Broth microdilution MIC/MBC, glycosides with or without polymyxins. The format is cell-based, Escherichia coli. Particulars: Escherichia coli, ATCC25922; antibiotic alone; strain A; read-out: MIC (antibiotic susceptibility profile).
The subject of a further experiment is K. pneumoniae CQ4921. Described as above. Type of experiment: cell-based, Klebsiella pneumoniae. Conditions: antibiotic alone, strain C; for MIC: Klebsiella pneumoniae, CQ4921, read-out: MIC (antibiotic susceptibility profile).
The next experiment has as its system E. cloacae CQ1941. The description is as above. Type of experiment: cell-based. Conditions: Enterobacter cloacae, CQ1941; antibiotic alone; strain D; read-out: MIC (antibiotic susceptibility profile).
In another experiment the test system is K. pneumoniae CQ1942. In words: Broth microdilution MIC, glycosides with or without polymyxins. Conditions: Klebsiella pneumoniae, CQ1942; antibiotic alone; strain E; read-out: MIC (antibiotic susceptibility profile). Type of experiment: cell-based, Klebsiella pneumoniae. For orientation: Dilution methods test growth across graded concentrations, often in twofold steps.

Another experiment deals with K. pneumoniae CQ1947. The description is as above. Type of experiment: cell-based, Klebsiella pneumoniae. Particulars: Klebsiella pneumoniae, CQ1947; antibiotic alone; strain F; read-out: MIC (antibiotic susceptibility profile).
The next experiment relates to A. baumannii CQ4322. The experiment in a line: Broth microdilution MIC/MBC, glycosides with or without polymyxins. Type of experiment: cell-based, Acinetobacter baumannii. Particulars: antibiotic alone; strain G.
The subject of a further experiment is P. aeruginosa CQ4924. The experiment in a line: Broth microdilution MIC, glycosides with or without polymyxins. Particulars: antibiotic alone; strain H. The format is cell-based, Pseudomonas aeruginosa.

Usually MIC stands for the lowest concentration found to suppress growth. As to `NCC[C@H](O)C(=O)N[C@@H]1C[C@H](N)[C@@H](O[C@H]2O[C@H](CN)[C@@H](O)[C@H](O)[C@H]2O)[C@H](O)[C@H]1O[C@H]1O[C@H](CO)[C@@H](O)[C@H](N)[C@H]1O` [Amikacin, reference compound], the MIC in the experiment on E. coli ATCC 25922 was 1 to 2 µg/mL (≈ 1.71 to 3.42 µM); with K. pneumoniae CQ4921 it was 0.5 to 2 µg/mL (≈ 0.854 to 3.42 µM); in the experiment on E. cloacae CQ1941 it was not below 128 µg/mL; in the experiment with K. pneumoniae CQ1942, 16 µg/mL (≈ 27.3 µM); in the experiment with K. pneumoniae CQ1947, 32 µg/mL (≈ 54.6 µM). The “MIC (antibiotic susceptibility profile)” value was not below 128 µg/mL against A. baumannii CQ4322 and 4 µg/mL (≈ 6.83 µM) in the experiment with P. aeruginosa CQ4924.
Turning to `CC1(C)S[C@@H]2[C@H](NC(=O)[C@H](N)c3ccc(O)cc3)C(=O)N2[C@H]1C(=O)O` [Amoxicillin, reference compound], the MIC in the experiment with E. coli ATCC 25922 is 4 µg/mL (≈ 10.9 µM); in the experiment on K. pneumoniae CQ4921, not below 128 µg/mL; in the experiment on E. cloacae CQ1941, not below 128 µg/mL; in the experiment on K. pneumoniae CQ1942, not below 128 µg/mL; in the experiment on K. pneumoniae CQ1947, not below 128 µg/mL. Besides, the “RIS (susceptibility category)” value in the experiment with A. baumannii CQ4322 and with P. aeruginosa CQ4924 was “ERP” throughout.
Regarding `CC1(C)S[C@@H]2[C@H](NC(=O)[C@H](N)c3ccccc3)C(=O)N2[C@H]1C(=O)O` [Ampicillin, reference compound], the MIC with E. coli ATCC 25922 was 4 µg/mL (≈ 11.4 µM); in the experiment on K. pneumoniae CQ4921, not below 128 µg/mL; in the experiment on E. cloacae CQ1941, not below 128 µg/mL; with K. pneumoniae CQ1942, not below 128 µg/mL; in the experiment on K. pneumoniae CQ1947, not below 128 µg/mL. Further, the “RIS (susceptibility category)” value in the experiment on A. baumannii CQ4322 and in the experiment with P. aeruginosa CQ4924 was “ERP” throughout.
As for `C[C@H]1[C@H](NC(=O)/C(=N\OC(C)(C)C(=O)O)c2csc(N)n2)C(=O)N1S(=O)(=O)O` [Aztreonam, reference compound], the MIC was more than 64 µg/mL in the experiment with E. cloacae CQ1941, more than 64 µg/mL with K. pneumoniae CQ1942 and 0.25 µg/mL (≈ 0.574 µM) in the experiment on K. pneumoniae CQ1947. Also, the “RIS (susceptibility category)” value in the experiment with A. baumannii CQ4322 is given as “ERP”.
As to `CO/N=C(\C(=O)N[C@@H]1C(=O)N2C(C(=O)[O-])=C(C[N+]3(C)CCCC3)CS[C@H]12)c1csc(N)n1` [Cefepime, reference compound], the minimum inhibitory concentration (MIC) in the experiment on E. coli ATCC 25922 is 0.03 to 0.06 µg/mL (≈ 0.0624 to 0.125 µM); in the experiment on E. cloacae CQ1941 it was more than 64 µg/mL; in the experiment on K. pneumoniae CQ1942, more than 64 µg/mL; in the experiment with K. pneumoniae CQ1947, 32 µg/mL (≈ 66.6 µM).
For `CO/N=C(\C(=O)N[C@@H]1C(=O)N2C(C(=O)O)=C(COC(C)=O)CS[C@H]12)c1csc(N)n1` [Cefotaxime, reference compound], the minimal inhibitory concentration (MIC) was 0.06 µg/mL (≈ 0.132 µM) with E. coli ATCC 25922; 2 µg/mL (≈ 4.39 µM) in the experiment with K. pneumoniae CQ4921; not below 128 µg/mL in the experiment with E. cloacae CQ1941; not below 128 µg/mL with K. pneumoniae CQ1942; not below 128 µg/mL in the experiment with K. pneumoniae CQ1947. The results for the “RIS (susceptibility category)” value in the experiment on K. pneumoniae CQ4921, in the experiment on A. baumannii CQ4322 and in the experiment on P. aeruginosa CQ4924 were “I/R”, “ERP” and “ERP”, respectively.
